# Paper PMC8758724, “Molecular mechanism of agonism and inverse agonism in ghrelin receptor” (Nature Communications, 2022)
# No end group written: not given here. *: point of attachment. Octanoyl = CCCCCCCC(=O)*
# Experiments:
# [1] = system: wild-type ghrelin receptor; experiment: IP1 accumulation, wild-type ghrelin receptor, HEK293 cells, 37 °C 2 h, Cisbio IP1 kit; format: cell-based, human; settings: WT
# Protocol: Fig. 1 Overall structures of ghrelin receptors bound to inverse agonist and agonist. a Dose-dependent responses of endogenous agonist ghrelin, inverse agonist PF-05190457 and antagonist compound 21 containing 10 nM ghrelin peptide at wild-type ghrelin receptor measured by cellular IP1 accumulation assays. […] Data represent the mean ± SEM from n = 3 biologically independent experiments performed in triplicate. b View from within the plane of the membrane. The inverse agonist-bound ghrelin receptor is represented as a wheat cartoon, and PF-05190457 is shown as a marine blue sphere. Cryo-EM structure of the agonist ghrelin-bound ghrelin receptor-Gαo1-scFv16 complex. c Ghrelin peptides and receptors are shown as deep salmon spheres and aquamarine cartoons, respectively. The Go heterotrimer and scFv16 are shown in the gray cartoon. d View from the extracellular side of the membrane. […]
# IP accumulation was measured using Cisbio IP1 assay kit (Cisbio, 62IPAPEB), which has been previously described. […] IP1 was quantified using Synergy H1 microplate reader (BioTek) with excitation at 320 nm, emission at 620 nm, and 665 nm. The accumulation of IP1 was calculated according to a standard dose–response curve in GraphPad Prism 8 (GraphPad Software). […]
# [2] = system: ghrelin receptor mutants; experiment: IP1 accumulation, ghrelin receptor mutants, HEK293 cells, 37 °C 2 h (compound 21 containing 10 nM ghrelin); format: cell-based, human; settings: for ghrelin-induced activation, effect of mutation: peer review file
# From the text: Fig. 2 The binding mode of PF-05190457 with the ghrelin receptor. a The detailed binding mode of PF-05190457 in the orthosteric pocket of the ghrelin receptor. The |Fo| − |Fc| omit map (contoured at 3.0 σ) for PF-05190457 (shown as marine blue sticks). […] The diazaspiro core is shown in pink, arm-1 is sky blue, and arm-2 is light green. The red solid lines indicate hydrogen bonds involved in interactions with the side chains of key residues. d–f Key residues of the ghrelin receptor (wheat sticks) involved in ligand binding in cavity III (d), cavity I (e), and cavity IV (f). The binding pocket is highly hydrophobic, and the particular polar network is shown as black dotted lines. g IP1 accumulation induced by the inverse agonist PF-05190457 and antagonist compound 21. Bars represent the difference in the calculated potency (pIC50) of the inverse agonist for mutations relative to the WT ghrelin receptor. Data are colored according to extent of effect. nd not detected, **P < 0.01, ***P < 0.001 (one-way analysis of variance (ANOVA) followed by Dunnett’s test, compared with the response of WT, P < 0.001, P < 0.001, P < 0.001, P > 0.999, nd, nd, P = 0.05, nd, P < 0.001, P < 0.001, nd, nd, nd, nd, nd, nd, P < 0.01, P = 0.264, P < 0.001, nd, P < 0.001, nd from left to right). Data represent the mean ± SEM from n = 3 biologically independent experiments performed in triplicate. […] The salt bridges between E124^3.33 and R283^6.55 as well as between R102^2.63 and Q120^3.29, are broken upon PF-05190457 binding.
# To measure the activity of inverse agonist PF-05190457 (Tocris, Cat. No. 6350), we carried out IP1 accumulation assays for ghrelin receptor independent of agonist. The agonist ghrelin and antagonist compound 21 were also performed as the control. The cDNA of ghrelin receptor subcloned into pcDNA3.1(+) expression vector with a HA signal sequence followed by a Flag tag at the N-terminus. Point mutations used in our study were generated by using Q5 site-Directed Mutagenesis kit (NEB). All the constructs were verified by sequencing. The constructs were expressed in HEK293 cells using PEI transfection reagent (YEASEN, 40815es03) according to the manufacturer’s instruction. Cells were harvested 48 h post transfection.
# IP accumulation was measured using Cisbio IP1 assay kit (Cisbio, 62IPAPEB), which has been previously described. In brief, the harvested cells were distributed in a low volume 96-well dish and stimulated with increased concentration of inverse agonist PF-05190457, agonist ghrelin peptide or antagonist compound 21 containing 10 nM ghrelin peptide at 37 °C for 2 h. After that, d2-labeled IP1 and cryptate-labeled anti-IP1 monoclonal antibody dissolved in Lysis Buffer were added to the wells. After 1 h incubation at room temperature. IP1 was quantified using Synergy H1 microplate reader (BioTek) with excitation at 320 nm, emission at 620 nm, and 665 nm. The accumulation of IP1 was calculated according to a standard dose–response curve in GraphPad Prism 8 (GraphPad Software). Data were represented as the mean ± SEM from three independent experiments and all experiments were repeated at least three times.
# Supplementary Fig. 6: IP1 accumulation assay.
# (a) Expression level of the ghrelin receptor mutants. Data represent the mean ± SEM from three independent experiments performed in triplicate. ns, not significant, **p < 0.01, ***p < 0.001 (one-way analysis of variance [ANOVA] followed by Dunnett’s test, compared with the response […]
# 0.001, p=0.996, p=0.008, p=0.999 from left to right). Data represent the mean ± SEM from n=3 biologically independent experiments performed in triplicate.
# (b) IP1 accumulation measurement induced by inverse agonist PF-05190457(left), agonist ghrelin (middle) and antagonist compound 21 (right). ns, not significant; nd, not detected; ***p < 0.001 […]
# < 0.001, nd, nd, nd, p=0.264, nd, nd from left to right). Data represent the mean ± SEM from […]
substance,measurement,setting,value
"ghrelin: endogenous agonist, 28-amino acid peptide with octanoyl modification at the side chain of Ser+3 (GSS(Octanoyl)FLSPEHQRVQQRKESKKPPAKLQPR; UniProt Q9UBU3 24-51, looked up)",activation potency,[1],high activation potency as a full agonist
same,"ghrelin-induced activation, effect of mutation",[2]; D99^2.60 mutant,decreased potency of ghrelin induced activation
same,"potency, effect of mutation",[2]; F279^6.51A,impaired the potency
same,"potency, effect of mutation",[2]; F312^7.42A,impaired the potency
same,"ghrelin-induced activation, effect of mutation",[2]; R102^2.63 mutant,decreased potency of ghrelin induced activation
same,"potency, effect of mutation",[2]; W276^6.48A,impaired the potency
